{"source": "patent US11992497B2", "about": "(priority 2021, dated 2024)", "key": {"[1]": {"system": "cryopreserved hepatocytes", "experiment": "Hepatocyte stability and metabolite profiling", "format": "in vitro ADME, monkey", "settings": "monkey hepatocyte samples", "method": "(§1) The objective of this study was to investigate the stability of the test compound, CBG, in human, rat, dog, mouse, monkey and minipig cryopreserved hepatocytes. Follow-on metabolite profiling was performed.\n(§2) CBG was incubated up to 2 hr with cryopreserved hepatocytes. Cryopreserved hepatocytes in suspension were added to test compound in supplemented media following pre-incubation to initiate the reaction and the reactions were stopped by organic solvent at the appropriate time points. The termination plates were centrifuged and sample supernatants were analysed using Cyprotex generic LC MS/MS conditions to generate intrinsic clearance values for CBG. Two control compounds for each species were included in the assay and if the values for these compounds were not within the specified limits the results were rejected and the experiment repeated.\n(§3) Following the hepatocyte stability assay the samples were 59tilized for metabolite profiling using suitable high-resolution LC-MS/MS conditions. The 40 and 60 minute human samples, 20 and 120 minute rat samples, 10 and 20 minute dog and monkey samples, 20 and 60 minute mouse samples, and 40 and 120 minute minipig samples were compared against the 0 minute control sample to establish which and how many metabolites were formed. […] No further analysis was carried out with the mouse species.\n(§4) The areas and percentages reported for the parent and metabolites were calculated using the XIC data. Metabolite observed at greater than 1% of the total of drug related material are reported. […] For accuracy, a ppm error of less than 5 is desirable; when the response for a metabolite observed is low the ppm error maybe greater than 5. Where a metabolite has been referred to as a potential oxidation it can refer to a potential hydroxylation, epoxidation or oxide formation. Representative collision induced dissociation (CID) mass spectra were obtained for the metabolites found."}, "[2]": {"experiment": "Hepatocyte stability and metabolite profiling", "format": "in vitro ADME, monkey", "settings": "cryopreserved hepatocytes in suspension; Monkey cryopreserved hepatocytes", "method": "as §1, §2, §3, §4"}, "[3]": {"experiment": "Quantification of CBG and CBG glucuronide in rat plasma (LC-MS/MS)", "format": "in vivo, Sprague-Dawley rat", "method": "The purpose of this study was to quantify cannabigerol (CBG) in rat plasma and brain.\nSeven- to nine-week-old male and female Sprague-Dawley received either a single dose or once daily dosing for 21 days of vehicle or CBG at three different dosage levels as shown in the Table below.\nApproximately 0.2-0.25 mL blood was collected during the first 24 hours after the single dose, and at multiple times points after the terminal dose for the animals receiving daily dosing for 21 days. Liver, kidney, and colon samples were collected and fixed in 10% NBF for 48 hours, then stored in 70% ethanol at room temperature. Brain samples were collected and flash frozen.\nAnalytical curves were constructed using non-zero standards with CBG concentration ranging from 0.0025 to 2.500 μg/mL and 2.500-100.0 μg/mL in blank rat plasma samples and 1.0 to 2500 ng/mL in blank brain tissues. A blank sample was used to exclude contamination.\nInstrument Used: AB SCIEX QTRAP 4500/Shimadzu Prominence LC"}}, "note": "Where two headings read alike, the source gives them in different places.", "data": [{"smiles": "CCCCCc1cc(O)c(C/C=C(\\C)CCC=C(C)C)c(O)c1", "note": "[CBG, cannabigerol]", "values": [{"measurement": "number of metabolites observed", "setting": "[1]", "result": "four"}, {"measurement": "half-life", "setting": "[2]", "result": 11.3, "unit": "min"}, {"measurement": "hepatocyte CLint", "setting": "[2]", "result": 122, "unit": "µL/min/1e6 cells"}, {"measurement": "CBG concentration in rat plasma (Day 21)", "setting": "[3]; CBG 10 mg/kg oral gavage once daily, 15 min post Rx", "result": "BLQ (BLQ—Below Limit of Quantification (2.5 ng/ml))"}, {"measurement": "CBG concentration in rat plasma (Day 21)", "setting": "[3]; CBG 10 mg/kg oral gavage once daily, 30 min post Rx", "result": "BLQ (BLQ—Below Limit of Quantification (2.5 ng/ml))"}, {"measurement": "CBG concentration in rat plasma (Day 21)", "setting": "[3]; CBG 10 mg/kg oral gavage once daily, 24 hr post Rx", "result": "BLQ (BLQ—Below Limit of Quantification (2.5 ng/ml))"}, {"measurement": "CBG concentration in rat plasma (Day 1)", "setting": "[3]; CBG 10 mg/kg oral gavage once, 15 min post Rx", "result": "BLQ (BLQ—Below Limit of Quantification (2.5 ng/ml))"}, {"measurement": "CBG concentration in rat plasma (Day 1)", "setting": "[3]; CBG 10 mg/kg oral gavage once, 30 min post Rx", "result": "BLQ (BLQ—Below Limit of Quantification (2.5 ng/ml))"}, {"measurement": "CBG concentration in rat plasma (Day 1)", "setting": "[3]; CBG 10 mg/kg oral gavage once, 4 hr post Rx", "result": "BLQ (BLQ—Below Limit of Quantification (2.5 ng/ml))"}, {"measurement": "CBG concentration in rat plasma (Day 1)", "setting": "[3]; CBG 10 mg/kg oral gavage once, 8 hr post Rx", "result": "BLQ (BLQ—Below Limit of Quantification (2.5 ng/ml))"}, {"measurement": "CBG concentration in rat plasma (Day 1)", "setting": "[3]; CBG 10 mg/kg oral gavage once, 24 hr post Rx", "result": "BLQ (BLQ—Below Limit of Quantification (2.5 ng/ml))"}, {"measurement": "CBG concentration in rat plasma (Day 21)", "setting": "[3]; CBG 30 mg/kg oral gavage once daily, 30 min post Rx", "result": "BLQ (BLQ—Below Limit of Quantification (2.5 ng/ml))"}, {"measurement": "CBG concentration in rat plasma (Day 21)", "setting": "[3]; CBG 30 mg/kg oral gavage once daily, 1 hr post Rx", "result": "BLQ (BLQ—Below Limit of Quantification (2.5 ng/ml))"}, {"measurement": "CBG concentration in rat plasma (Day 21)", "setting": "[3]; CBG 30 mg/kg oral gavage once daily, 2 hr post Rx", "result": "BLQ (BLQ—Below Limit of Quantification (2.5 ng/ml))"}, {"measurement": "CBG concentration in rat plasma (Day 21)", "setting": "[3]; CBG 30 mg/kg oral gavage once daily, 4 hr post Rx", "result": "BLQ (BLQ—Below Limit of Quantification (2.5 ng/ml))"}, {"measurement": "CBG concentration in rat plasma (Day 21)", "setting": "[3]; CBG 30 mg/kg oral gavage once daily, 8 hr post Rx", "result": "BLQ (BLQ—Below Limit of Quantification (2.5 ng/ml))"}, {"measurement": "CBG concentration in rat plasma (Day 21)", "setting": "[3]; CBG 30 mg/kg oral gavage once daily, 24 hr post Rx", "result": "BLQ (BLQ—Below Limit of Quantification (2.5 ng/ml))"}, {"measurement": "CBG concentration in rat plasma (Day 1)", "setting": "[3]; CBG 30 mg/kg oral gavage once, 8 hr post Rx", "result": "BLQ (BLQ—Below Limit of Quantification (2.5 ng/ml))"}, {"measurement": "CBG concentration in rat plasma (Day 21)", "setting": "[3]; CBG 100 mg/kg oral gavage once daily, 24 hr post Rx", "result": "BLQ (BLQ—Below Limit of Quantification (2.5 ng/ml))"}, {"measurement": "CBG concentration in rat plasma (Day 1)", "setting": "[3]; CBG 100 mg/kg oral gavage once, 15 min post Rx", "result": "BLQ (BLQ—Below Limit of Quantification (2.5 ng/ml))"}, {"measurement": "CBG concentration in rat plasma (Day 1)", "setting": "[3]; CBG 100 mg/kg oral gavage once, 30 min post Rx", "result": "BLQ (BLQ—Below Limit of Quantification (2.5 ng/ml))"}, {"measurement": "CBG concentration in rat plasma (Day 1)", "setting": "[3]; CBG 100 mg/kg oral gavage once, 1 hr post Rx", "result": "BLQ (BLQ—Below Limit of Quantification (2.5 ng/ml))"}, {"measurement": "CBG concentration in rat plasma (Day 1)", "setting": "[3]; CBG 100 mg/kg oral gavage once, 2 hr post Rx", "result": "BLQ (BLQ—Below Limit of Quantification (2.5 ng/ml))"}, {"measurement": "CBG concentration in rat plasma (Day 1)", "setting": "[3]; CBG 100 mg/kg oral gavage once, 8 hr post Rx", "result": "BLQ (BLQ—Below Limit of Quantification (2.5 ng/ml))"}, {"measurement": "CBG concentration in rat plasma (Day 1)", "setting": "[3]; CBG 100 mg/kg oral gavage once, 24 hr post Rx", "result": "BLQ (BLQ—Below Limit of Quantification (2.5 ng/ml))"}, {"measurement": "concentration at 1 h", "setting": "[3]; both sexes, Sprague-Dawley, rat, plasma, oral, 10 mg/kg, CBG 10 mg/kg oral gavage once daily, 1 hr post Rx, read-out: CBG concentration in rat plasma (Day 21)", "result": 0.00167, "unit": "µg/mL"}, {"measurement": "concentration at 4 h", "setting": "[3]; both sexes, Sprague-Dawley, rat, plasma, oral, 10 mg/kg, CBG 10 mg/kg oral gavage once daily, 4 hr post Rx, read-out: CBG concentration in rat plasma (Day 21)", "result": 0.00473, "unit": "µg/mL"}, {"measurement": "concentration at 8 h", "setting": "[3]; both sexes, Sprague-Dawley, rat, plasma, oral, 10 mg/kg, CBG 10 mg/kg oral gavage once daily, 8 hr post Rx, read-out: CBG concentration in rat plasma (Day 21)", "result": 0.00255, "unit": "µg/mL"}, {"measurement": "concentration at 2 h", "setting": "[3]; both sexes, Sprague-Dawley, rat, plasma, oral, 10 mg/kg, CBG 10 mg/kg oral gavage once, 2 hr post Rx, read-out: CBG concentration in rat plasma (Day 1)", "result": 0.012, "unit": "µg/mL"}, {"measurement": "concentration at 15 min", "setting": "[3]; both sexes, Sprague-Dawley, rat, plasma, oral, 30 mg/kg, CBG 30 mg/kg oral gavage once, 15 min post Rx, read-out: CBG concentration in rat plasma (Day 1)", "result": 0.0038, "unit": "µg/mL"}, {"measurement": "concentration at 30 min", "setting": "[3]; both sexes, Sprague-Dawley, rat, plasma, oral, 30 mg/kg, CBG 30 mg/kg oral gavage once, 30 min post Rx, read-out: CBG concentration in rat plasma (Day 1)", "result": 0.0152, "unit": "µg/mL"}, {"measurement": "concentration at 24 h", "setting": "[3]; both sexes, Sprague-Dawley, rat, plasma, oral, 30 mg/kg, CBG 30 mg/kg oral gavage once, 24 hr post Rx, read-out: CBG concentration in rat plasma (Day 1)", "result": 0.00275, "unit": "µg/mL"}, {"measurement": "concentration at 15 min", "setting": "[3]; both sexes, Sprague-Dawley, rat, plasma, oral, 100 mg/kg, CBG 100 mg/kg oral gavage once daily, 15 min post Rx, read-out: CBG concentration in rat plasma (Day 21)", "result": 0.0416, "unit": "µg/mL"}, {"measurement": "concentration at 30 min", "setting": "[3]; both sexes, Sprague-Dawley, rat, plasma, oral, 100 mg/kg, CBG 100 mg/kg oral gavage once daily, 30 min post Rx, read-out: CBG concentration in rat plasma (Day 21)", "result": 0.178, "unit": "µg/mL"}, {"measurement": "concentration at 1 h", "setting": "[3]; both sexes, Sprague-Dawley, rat, plasma, oral, 100 mg/kg, CBG 100 mg/kg oral gavage once daily, 1 hr post Rx, read-out: CBG concentration in rat plasma (Day 21)", "result": 0.226, "unit": "µg/mL"}, {"measurement": "concentration at 2 h", "setting": "[3]; both sexes, Sprague-Dawley, rat, plasma, oral, 100 mg/kg, CBG 100 mg/kg oral gavage once daily, 2 hr post Rx, read-out: CBG concentration in rat plasma (Day 21)", "result": 0.307, "unit": "µg/mL"}, {"measurement": "concentration at 4 h", "setting": "[3]; both sexes, Sprague-Dawley, rat, plasma, oral, 100 mg/kg, CBG 100 mg/kg oral gavage once, 4 hr post Rx, read-out: CBG concentration in rat plasma (Day 1)", "result": 0.119, "unit": "µg/mL"}, {"measurement": "concentration of CBG in plasma (in words)", "setting": "[3]; oral CBG 10-100 mg/kg, Days 1 and 21", "result": "low or below the level of quantitation (BLQ)"}, {"measurement": "first pass metabolism to the glucuronide upon oral administration (in words)", "setting": "[3]; oral CBG, rat", "result": "very high first pass metabolism to the glucuronide"}]}]}
